Results on 21 compounds are retold here after patent US5223513A, “Quinoline derivatives, their production and use” (Takeda Chemical Industries, Ltd., priority 1989, dated 1993).

As usually defined, the inhibition is the relative decrease from the control value, in per cent.

Experiment [1] has as its target T1, acyl-CoA : cholesterol acyltransferase (ACAT) (Rattus norvegicus, UniProt Q7TQM4).
T1 construct: mucosal microsome fraction of the small intestine; from tissue; host or cells: mucosal microsome fraction of rat small intestine
T1 sequence (Q7TQM4 1-524): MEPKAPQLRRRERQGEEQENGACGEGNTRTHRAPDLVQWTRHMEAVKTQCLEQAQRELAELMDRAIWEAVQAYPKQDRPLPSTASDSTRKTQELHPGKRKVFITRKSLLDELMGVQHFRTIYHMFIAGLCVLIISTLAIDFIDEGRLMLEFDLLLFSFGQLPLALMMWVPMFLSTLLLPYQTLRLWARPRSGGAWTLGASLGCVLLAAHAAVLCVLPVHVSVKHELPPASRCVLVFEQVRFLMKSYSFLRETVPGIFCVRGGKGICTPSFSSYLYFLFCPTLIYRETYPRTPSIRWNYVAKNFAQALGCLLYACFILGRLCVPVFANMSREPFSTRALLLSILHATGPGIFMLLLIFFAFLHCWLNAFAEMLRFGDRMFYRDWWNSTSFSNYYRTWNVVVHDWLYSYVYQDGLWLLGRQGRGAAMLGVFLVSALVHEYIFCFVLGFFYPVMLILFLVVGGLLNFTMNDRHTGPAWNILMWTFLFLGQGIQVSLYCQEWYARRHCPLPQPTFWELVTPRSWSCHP
Kind of experiment: Acyl-CoA : Cholesterol Acyltransferase (ACAT) inhibitory activity. Format: biochemical. The note with it: for inhibition at 1 µM: 10^-6 M of test compound, production of labeled cholesterol ester, read-out: ACAT Inhibition Rate (%); for IC50: calculated by plotting inhibition rates obtained at plural concentrations, read-out: 50% inhibitory concentration (IC50). The method, then:
The enzyme ACAT was prepared by the method of Heider et al. described in Journal of Lipid Research, Vol. 24, page 1127 (1982), from the mucosal microsome fraction of the small intestine of male, 6-week old Sprague-Dawley rats which had been fasted for 20 hours.
ACAT activity was calculated by the method of Helgerud et al. described in Journal of Lipid Research, Vol. 22, page 271 (1981), namely, by measuring the amount of the labeled cholesterol ester produced from [1-^14 C] oleoyl-CoA and endogenous cholesterol. […]

Experiment [2] is described as follows: Plasma Cholesterol Lowering Activity in Cholesterol Fed Rat. To be noted: 1% cholesterol diet containing 0.0003% of test compound for 7 days; Example 3 dose 0.27 ± 0.02, Example 24 dose 0.24 ± 0.03 mg/kg/day; mean ± standard deviation; *p < 0.05 (t test vs control group 195 ± 32). It counts as in vivo, rat (Sarague-Dawely). The method, then:
To 7-week old, male Sarague-Dawely rats which were grouped according to body weight was fed 1% cholesterol diet containing 0.5% of cholic acid, 5% of olive oil and 0.0003% of a test compound for 7 days. Blood was collected from the rats during 8:30-10:00 am at the fed state, and the plasma cholesterol level was measured enzymatically. The amount of test compound consumed by rats was calculated on the basis of the amount of the diet consumed by the rats.

`Cn1c(=O)c(NC(=O)Nc2ccc(F)cc2F)c(-c2ccccc2)c2cc(Cl)ccc21` [Example 7, N-(6-chloro-1,2-dihydro-1-methyl-2-oxo-4-phenyl-3-quinolyl)-N'-(2,4-difluorophenyl)urea]: in experiment [1], the inhibition at 1 µM stood at 77.9%.

Turning to `COc1nc2ccc(Cl)cc2c(-c2ccccc2Cl)c1NC(=O)Nc1ccc(F)cc1F` [Example 9], in experiment [1], the inhibition at 1 µM worked out at 89.6%.

For `CCc1ccc2c(c1)c(-c1ccccc1Cl)c(NC(=O)Nc1c(C)cccc1C(C)C)c(=O)n2C` [Example 18, N-[4-(2-chlorophenyl)-1,2-dihydro-6-ethyl-1-methyl-2-oxo-3-quinolyl]-N'-(2-isopropyl-6-methylphenyl)urea], in experiment [1], the inhibition at 1 µM turned out to be 99.2% and the IC50 is 12 nM.

With `CCn1c(=O)c(NC(=O)Nc2ccc(F)cc2F)c(-c2ccccc2Cl)c2cc(C)cc(C)c21` [Example 6, N-[4-(2-chlorophenyl)-1-ethyl-1,2-dihydro-6,8-di-methyl-2-oxo-3-quinolyl]-N'-(2,4-difluorophenyl)urea], the inhibition at 1 µM in experiment [1] came to 97.9%.

On to `Cc1cc2c(-c3ccccc3Cl)c(NC(=O)Nc3ccc(F)cc3F)c(=O)n(C)c2cc1C` [Example 3, N-[4-(2-chlorophenyl)-1,6,7-trimethyl-1,2-dihydro-2-oxo-3-quinolyl]-N'-(2,4-difluorophenyl)urea], for which, in experiment [1], the inhibition at 1 µM stood at 98.7% and the IC50 was 6.4 nM. In addition, the “Cholesterol in Serum” value in experiment [2] is 129 ± 19 mg/dL.

As for `COc1ccc(-c2c(NC(=O)Nc3c(C)cccc3C(C)C)c(=O)n(C)c3ccc(Cl)cc23)cc1OC` [Example 23], in experiment [1], the inhibition at 1 µM is 99% and the IC50 was 41 nM.

For the compound `COc1nc2c(C)cc(C)cc2c(-c2ccccc2Cl)c1NC(=O)Nc1ccc(F)cc1F` [Example 12, N-[4-(2-chlorophenyl)-2-methoxy-6,8-dimethyl-3-quinolyl]-N -(2,4-difluorophenyl)urea], the inhibition at 1 µM in experiment [1] came out at 95.9%.

In the case of `COc1ccc(-c2c(NC(=O)Nc3ccc(F)cc3F)c(=O)n(C)c3ccc(C)cc23)cc1OC` [Example 11, N-(2,4-difluorophenyl)-N'-[1,2-dihydro-4-(3,4-di-methoxyphenyl) -1,6-dimethyl-2-oxo-3-quinolyl]urea], in experiment [1], the inhibition at 1 µM came out at 96.6%.

As for `Cc1cc(C)c2c(c1)c(-c1ccccc1Cl)c(NC(=O)Nc1ccc(F)cc1F)c(=O)n2C` [Example 4, N-[4-(2-chlorophenyl)-1,2-dihydro-1,6,8-trimethyl-2-oxo-3-quinolyl]-N'-(2,4-difluorophenyl)urea], the inhibition at 1 µM in experiment [1] was 97.1%.

Consider `COc1ccc(-c2c(NC(=O)Nc3c(C)cccc3C(C)C)c(=O)n(C)c3ccc(C)cc23)cc1OC` [Example 22, N-[1,2-dihydro-4-(3,4-dimethoxyphenyl)-1,6-dimethyl-3-quinolyn]-N'-(2-isopropyl-6-methylphenyl)urea], for which, in experiment [1], the inhibition at 1 µM came to 99% and the IC50 is 37 nM.

`Cc1cc2c(-c3ccccc3C)c(NC(=O)Nc3ccc(F)cc3F)c(=O)n(C)c2cc1Cl` [Example 24, N-[7-chloro-1,2-dihydro-4-(2-methylphenyl)-1,6-dimethyl-2-oxo-3-quinolyl]-N'-(2,4-difluorophenyl)urea]: in experiment [1], the inhibition at 1 µM came out at 99.2% and the IC50 is 9.3 nM. The “Cholesterol in Serum” value in experiment [2] worked out at 113 ± 41 mg/dL.

`Cc1cc(C)c2nc(C)c(NC(=O)Nc3ccc(F)cc3F)c(-c3ccccc3Cl)c2c1` [Example 13, N-[4-(2-chlorophenyl)-2,6,8-trimethyl-3-quinolyl]-N'-(2,4-difluorophenyl)urea]: the inhibition at 1 µM in experiment [1] was found to be 85.4%.

As for `Cc1ccccc1-c1c(NC(=O)Nc2c(C)cccc2C(C)C)c(=O)n(C)c2ccc(Cl)cc12` [Example 21, N-[6-chloro-1,2-dihydro-1-methyl-4-(2-methylphenyl)-2-oxo-3-quinolyl]-N'-(2-isopropyl-6-methylphenyl)urea], in experiment [1], the inhibition at 1 µM stood at 99.4% and the IC50 is 17 nM.

Turning to `COc1cc(NC(=O)Nc2c(-c3ccccc3Cl)c3cc(C)c(C)cc3n(C)c2=O)cc(OC)c1OC(C)=O` [Example 15, N-(4-acetoxy-3,5-di-methoxyphenyl) -N'-[4-(2-chlorophenyl)-1,2-dihydro-1,6,7-trimethyl-2-oxo-3-quinolyl]urea], the inhibition at 1 µM in experiment [1] is 90.1%.

As for `Cc1ccccc1-c1c(NC(=O)Nc2ccc(F)cc2F)c(=O)n(C)c2ccc(Cl)cc12` [Example 20, N-[6-chloro-1,2-dihydro-1-methyl-4-(2-methylphenyl)-2-oxo-3-quinolyl]-N'-(2,4-difluorophenyl)urea], in experiment [1], the inhibition at 1 µM is 96.1% and the IC50 is 35 nM.

For `Cn1c(=O)c(NC(=O)Nc2ccc(F)cc2F)c(-c2ccccc2Cl)c2cc(Cl)ccc21` [Example 1], the inhibition at 1 µM in experiment [1] turned out to be 96.8%.

`Cc1cc(C)c2c(c1)c(-c1ccccc1Cl)c(NC(=O)Nc1c(C)cccc1C(C)C)c(=O)n2C` [Example 5, N-[4-(2-chlorophenyl)-1,2-dihydro-1,6,8-trimethyl-2-oxo-3-quinolyl]-N'-(2-isopropyl-6-methylphenyl)urea]: in experiment [1], the inhibition at 1 µM was 98.2% and the IC50 was 18 nM.

As to `CCc1ccc2c(c1)c(-c1ccccc1Cl)c(NC(=O)Nc1ccc(F)cc1F)c(=O)n2C` [Example 17, N-[4-(2-chlorophenyl)-1,2-dihydro-6-ethyl-1-methyl-2-oxo-3-quinolyl]-N'-(2,4-difluorophenyl)urea], in experiment [1], the inhibition at 1 µM stood at 96.5% and the IC50 was 25 nM.

Take `Cc1cccc(C(C)C)c1NC(=O)Nc1c(-c2ccccc2Cl)c2cc(Cl)ccc2n(C)c1=O` [Example 2]: in experiment [1], the inhibition at 1 µM came to 99.2% and the IC50 was 16 nM.

In the case of `CC(C)c1ccc2c(c1)c(-c1ccccc1Cl)c(NC(=O)Nc1ccc(F)cc1F)c(=O)n2C` [Example 19, N-[4-(2-chlorophenyl)-1,2-dihydro-6-isopropyl-1-methyl-2-oxo-3-quinolyl]-N'-(2,4-difluorophenyl)urea], in experiment [1], the inhibition at 1 µM is 97.8% and the IC50 was 37 nM.

`Cc1cc2c(-c3ccccc3C)c(NC(=O)Nc3ccc(F)cc3F)c(=O)n(C)c2cc1C` [Example 10, N-(2,4-difluorophenyl)-N'-(1,2-dihydro-1,6,7-trimethyl-4-(2-methylphenyl)-2-oxo-3-quinolyl]urea]: in experiment [1], the inhibition at 1 µM amounted to 97.6% and the IC50 is 78 nM.
